Laboratory results: patent publication US4371673A, “Water soluble forms of retinoids” (The United States of America as represented by the …, priority 1980, dated 1983)
Values after ≈ are worked out from the molar mass of the structure shown. Values joined by “and” are separate entries in the source; they are usually repeats but may differ in a detail not shown here. Equal values may be shown once. Read-outs that look alike come from different tables or passages of the source. Blank lines part the entries; values can stand above or below the compound they belong to.

Tests used:
vitamin A-deficient rats [1] = test: Vitamin A-like activity measured by survival of rats fed vitamin A-deficient diet; type: in vivo, rat (male weanling albino, Holtzman); settings: for No. of surviving animals/total: 100 μg retinal equivalent for complex
Experimental: Studies were undertaken to determine whether the chemical modification of retinoids to polymer-linked water soluble forms alter its biological activities. Specifically, the vitamin A-like activity of the mixed α-, β-dextrin complex of retinal-carboxymethyldextran hydrazone was tested on rats made vitamin A-deficient. The "animals" referred to herein should be construed as meaning rats.
To prepare the rats for dietary studies, male weanling albino rats of the Holtzman string were fed a vitamin A-deficient diet until a weight plateau was reached. A cyclic program was then begun in which the rats which were provided with the deficient diet were supplemented with retinoic acid at a rate of 2 μg per g. This was continued for 18 days followed by 10 days of the original deficient diet. At the termination of the fourth 18-day period in which the rats were fed the retinoic acid supplemented diet, the rats were fed for 7 days with the deficient diet and then used in two types of experiments: (a) Studies of the resorption of retinal-carboxymethyldextran hydrazone from the gastrointestinal tract and (b) studies of growth support for avitamineosis. The results of the resorption studies (a) were determined by spectrophotometrically analyzing for retinol in the serum or liver. The vitamin A-like activity of the complexes of the present invention (b) was evaluated by comparison of survival rates of a control group, those fed a cyclodextrin complex of a retinoid-polymer and those fed a free retinoid derivative.
^a The control rats received 0.2 mL of cottonseed oil
intraperitoneally while the treated animals received […] of retinyl
acetate or retinoic acid in 0.2 mL cottonseed oil or retinaldextran
complex (100 μg of retinal equivalent) in 0.2 mL water. Subsequently,
the rats received a vitamin Adeficient diet for periods indicated in the
Table and their survival was followed.
In the second series of experiments, compared in Table 2, the retinal-carboxymethyldextran complex was administered intraperitoneally and the survival of the vitamin A-deficient rats was followed during the 28 to 35 days of a vitamin A-deficient diet. […] In contrast, the control rats as well as those rats which received retinoic acid (Experiment 3) died.

physchem = settings: isotonic buffered saline
Description: The concentration of retinal in the complex was estimated by comparison of the absorbance at the peak of the absorbance spectrum with the absorbance of free retinal in ethanol at 380 nm.

in vitro = settings: mouse, s9
Description: Decreased plating efficiency and cell lysis are considered indications of cytotoxic effects.

S91 melanoma cells = test: S91 melanoma cell proliferation (growth inhibition); type: cell-based; settings: for inhibition at 0.2 µM: Mus musculus, S91, 144 h, read-out: Percentage of growth inhibition
Experimental: Medium was chaged on Day 3. The cells were treated for 6 days

[2] = Direct solubilization of retinoids by cyclodextrins and their derivatives; type: physicochemical; settings: read-out: Solubility of retinoid in physiological buffered saline
Description: It has been discovered that by appropriately selecting a derivatized cyclodextrin, it is unnecessary to prepare a retinoid-polymer compound preliminary to, or concurrent with, the preparation of the complex. This greatly simplifies the process of dissolving a retinoid. Thus, to prepare a solution of the cyclodextrin retinoid complex, it is merely necessary to add the components, retinoid and cyclodextrin, with stirring to an aqueous medium, such as a saline or isotonic solution, at room temperature. If one has a suitable cyclodextrin available, it is unnecessary to synthesize the cyclodextrin retinoid-polymer.
Some examples of the solubility obtained for retinoid-dextrin complexes of the present invention in physiologically acceptable solutions are presented in Table 1. It may be noted that while the solubility of a complex of one retinoid with a particular cyclodextrin may not be great, the solubility of a complex of another retinoid, using the same cyclodextrin, may be increased several orders of magnitude.
Solubility of retinoid (μg/ml)
in physiological buffered saline
(NaCl, 8 g/L; Na2 HPO4.7H2 O,
2.2g/L; KCl, 0.2 g/L and […]

vitamin A-deficient rats [3] = test: Retinol in serum and liver of treated vitamin A-deficient rats (spectrophotometric), resorption studies; design: species or system rat (male weanling albino, Holtzman); settings: rat, in vivo, ip
[4] = buffered saline with α-cyclodextrin, α-cyclodextrin, 50 mg/ml
[5] = buffered saline with β-cyclodextrin, β-cyclodextrin, 17 mg/ml
[6] = physiological buffered saline, dodecakis-2,6-O-methyl-α-cyclodextrin, 25 mg/ml
[7] = physiological buffered saline, hexadecakis-2,6-O-methyl-γ-cyclodextrin, 25 mg/ml
[8] = physiological buffered saline, solubilization agent: none
[9] = physiological buffered saline, tetradecakis-2,6-O-methyl-β-cyclodextrin, 50 mg/ml
[10] = physiological buffered saline, γ-cyclodextrin, 50 mg/ml

SMILES: CC(=O)OC/C=C(C)/C=C/C=C(C)/C=C/C1=C(C)CCCC1(C)C [Retinyl acetate]
No. of surviving animals/total (vitamin A-deficient rats [1]; Experiment 1, 35 days on vitamin A-deficient diet, intraperitoneal): 3/3 | No. of surviving animals/total (vitamin A-deficient rats [1]; Experiment 2, 28 days on vitamin A-deficient diet, intraperitoneal): 4/4

solubility (physchem): < 0.01 µg/mL | MCC (in vitro): ≥ 10 µM | MNTC (in vitro): 2000 nM | solubility [2, 4]: 4 µg/mL (≈ 14.1 µM) | solubility [2, 5]: 2 µg/mL (≈ 7.03 µM) | solubility [2, 6]: 7 µg/mL (≈ 24.6 µM) | solubility [2, 7]: 4 µg/mL (≈ 14.1 µM) | solubility [2, 8]: < 1 µg/mL | solubility [2, 9]: 570 µg/mL (≈ 2000 µM) | solubility [2, 10]: 1 µg/mL (≈ 3.52 µM)
SMILES: CC1=C(/C=C/C(C)=C/C=C/C(C)=C/C=O)C(C)(C)CCC1 [retinal]
CC50 (in vitro): 4 µM | growth rate of cells after 48 hours (in words) (S91 melanoma cells; 48 hours, retinal 1 μM, complex 10 μM retinal moiety, FIG. 3, vs untreated controls): reduced in comparison to the untreated controls | growth inhibition, dose dependence (in words) (S91 melanoma cells; 6 days, below 2 μM (retinal) and 40 μM (complex), FIG. 2): dose-dependent inhibition | inhibition at 0.2 µM (S91 melanoma cells; 0.2 μM, 6 days): 28% | inhibition at 0.2 µM (S91 melanoma cells; second retinal line, printed 0.2 μM, 6 days): 52% | relative potency as growth inhibitor (in words) (S91 melanoma cells; all concentrations where retinal is not toxic): more potent inhibitor than the corresponding complex | inhibition of cell proliferation, first 24 hours (in words) (S91 melanoma cells; first 24 hours, retinal 1 μM, complex 10 μM retinal moiety, FIG. 3): no apparent inhibition of cell proliferation

SMILES: CC1=C(/C=C/C(C)=C/C=C/C(C)=C/C(=O)O)C(C)(C)CCC1 [retinoic acid]
day of death of animals (vitamin A-deficient rats [1]; Experiment 3, individual animals): 14 days and 28 days and 30 days | No. of surviving animals/total (vitamin A-deficient rats [1]; Experiment 3, 31 days on vitamin A-deficient diet, intraperitoneal): 0/3 | survival / vitamin A-like activity (in words) (vitamin A-deficient rats [1]; intraperitoneal, 28 to 35 days of vitamin A-deficient diet): died | Serum retinol (in words) (vitamin A-deficient rats [3]): not detectable | solubility [2, 4]: 140 µg/mL (≈ 466 µM) | solubility [2, 5]: 2000 µg/mL (≈ 6660 µM) | solubility [2, 6]: 460 µg/mL (≈ 1530 µM) | solubility [2, 7]: 140 µg/mL (≈ 466 µM) | solubility [2, 8]: 20 µg/mL (≈ 66.6 µM) | solubility [2, 9]: 460 µg/mL (≈ 1530 µM) | solubility [2, 10]: 130 µg/mL (≈ 433 µM)
